Data from patent US20230287138A1, “PROTEIN-DRUG CONJUGATES COMPRISING CAMPTOTHECIN ANALOGS AND METHODS OF USE THEREOF” (Regneron Pharmaceuticals, Inc., priority 2022, published 2023).
pEC50: −log10 of the molar value. Where two headings read alike, the source gives them in different places.

Tests used:
[1] = system: SK-BR-3 cells; test: In vitro cytotoxicity assay in SK-BR-3 cells (CellTiter-Glo 2.0); format: cell-based, human; settings: for pEC50: Homo sapiens
Experimental: To test the ability of anti-Her2 drug conjugates (ADCs) of the present disclosure (see Table 5) to kill human cell lines, an in vitro cytotoxicity assay was performed. In vitro cytotoxicity of the ADCs, isotype control ADCs, and reference free payloads were evaluated using the CellTiter-Glo 2.0 Assay Kit (Promega, Cat #G9243), in which the quantity of ATP present is used to determine the number of viable cells in culture.
The last well in each dilution series (untreated wells) served as blank controls containing only the media (ADCs) or media plus 0.2% DMSO (payloads) and was plotted as a continuation of the 3-fold serial dilution. Six days later, 100 μL of CellTiter Glo 2.0 was added to each well, plates were mixed for 2 minutes on an orbital shaker, and plates were incubated at room temperature for 10 minutes. Relative light units (RLUs) were measured on an Envision luminometer (PerkinElmer), and cell viability was expressed as a percentage of the untreated (100% viable) cells. IC50 values were determined using a four-parameter logistic equation over a 10-point dose response curve (GraphPad Prism). The maximum % kill was also determined for each test article as follows: 100−minimum percent viability.

[2] = system: HCT-15; test: HCT-15 data of payloads and linker-payloads (EC50, with or without verapamil); format: cell-based
[3] = Homo sapiens, linker-payload, HCT-15 cells, read-out: HCT-15 EC50
[4] = Homo sapiens, payload, HCT-15 cells, no verapamil, read-out: HCT-15 EC50
[5] = payload, HCT-15 cells plus verapamil, read-out: HCT-15 + verapamil EC50

Row | Compound | pEC50 [2, 3] | pEC50 [2, 4] | further results
1 | CC[C@@]1(O)C(=O)OCc2c1cc1n(c2=O)Cc2c-1nc1cc(F)c(C)c3c1c2[C@@H](N)CC3 [Exatecan] |  |  | pEC50 ([1]; 144 h, Table 8, SK-BR-3, six days, concentrations corrected for DAR (effective payload concentration), read-out: SKBR3 EC50): 9.29; pEC50 ([1]; SK-BR-3 cells, read-out: EC50 value): 9.29; maximum % kill ([1]; SK-BR-3 cells, 100 − minimum percent viability): ~95%
2 | CC[C@@]1(O)C(=O)OCc2c1cc1n(c2=O)Cc2c-1nc1cc(F)c(C)c3c1c2[C@@H](NC(=O)OCc1ccc(NC(=O)[C@H](CCCNC(N)=O)NC(=O)[C@@H](NC(=O)CCOCCOCCOCCOCCNC(=O)COC2C#CCCCCC2)C(C)C)cc1)CC3 (stereo partly drawn) [LP1, {4-[(2S)-5-(Carbamoylamino)-2-[(2S)-2-{1-[2-(cyclooct-2-yn-1-yloxy)acetamido]-3,6,9,12-tetraoxapentadecan-15-amido}-3-methylbutanamido]pentanamido]phenyl}methyl N-[(10S,23S)-10-ethyl-18-fluoro-10-hydroxy-19-methyl-5,9-dioxo-8-oxa-4,15-diazahexacyclo[14.7.1.0^2,^14.0^4,^13.0^6,^11.0^20,^24]tetracosa-1,6(11),12,14,16,18,20(24)-heptaen-23-yl]carbamate] | 6.54 |  | 
3 | CC[C@@]1(O)C(=O)OCc2c1cc1n(c2=O)Cc2c-1nc1cc(F)c(C)c3c1c2[C@@H](NC(=O)OCc1ccc(O[C@@H]2O[C@H](CO)[C@@H](O)[C@H](O)[C@H]2O)c(C(=O)NCCOCCOCCNC(=O)CCOCC(COCCC(=O)NCCOCCOCCNC(=O)c2cc(COC(=O)N[C@H]4CCc5c(C)c(F)cc6nc7c(c4c56)Cn4c-7cc5c(c4=O)COC(=O)[C@]5(O)CC)ccc2O[C@@H]2O[C@H](CO)[C@@H](O)[C@H](O)[C@H]2O)NC(=O)CCOCCOCCNC(=O)COC2C#CCCCCC2)c1)CC3 (stereo partly drawn) [LP16] | 6.85 |  | 
4 | CC[C@@](O)(C(=O)NCCN)c1cc2n(c(=O)c1COC(C)=O)Cc1c-2nc2cc(F)c(C)c3c2c1[C@@H](NC(=O)COC(C)=O)CC3 [P13, {[(19S)-6-[(Acetyloxy)methyl]-7-[(1 S)-1-[(2-aminoethyl)carbamoyl]-1-hydroxypropyl]-14-fluoro-15-methyl-5-oxo-4,11-diazapentacyclo[10.7.1.0^2,^10.0^4,^9.0^16,^20]icosa-1,6,8,10,12,14,16(20)-heptaen-19-yl]carbamoyl}methyl acetate] |  | 6.87 | 
5 | C#CCNCc1c2c(nc3ccc(OC)cc13)-c1cc3c(c(=O)n1C2)COC(=O)[C@]3(O)CC [P24, (S)-4-ethyl-4-hydroxy-9-methoxy-11-((prop-2-yn-1-ylamino)methyl)-1,12-dihydro-14H-pyrano[3′,4′:6,7]indolizino[1,2-b]quinoline-3,14(4H)-dione] |  | 7.87 | 
6 | CC[C@@]1(O)C(=O)OCc2c1cc1n(c2=O)Cc2c-1nc1cc(F)c(C)c3c1c2[C@@H](NC(=O)[C@H](Cc1ccccc1)NC(=O)OCc1ccc(NC(=O)[C@H](CCCNC(N)=O)NC(=O)[C@@H](NC(=O)CCOCCOCCOCCOCCNC(=O)COC2C#CCCCCC2)C(C)C)cc1)CC3 (stereo partly drawn) [LP10, {4-[(2S)-5-(carbamoylamino)-2-[(2S)-2-{1-[2-(cyclooct-2-yn-1-yloxy)acetamido]-3,6,9,12-tetraoxapentadecan-15-amido}-3-methylbutanamido]pentanamido]phenyl}methyl N-[(1 S)-1-{[(10S,23S)-10-ethyl-18-fluoro-10-hydroxy-19-methyl-5,9-dioxo-8-oxa-4,15-diazahexacyclo[14.7.1.0^2,^14.0^4,^13.0^6,^11.0^20,^24]tetracosa-1,6(11),12,14,16,18,20(24)-heptaen-23-yl]carbamoyl}-2-phenylethyl]carbamate] | 6.07 |  | 
7 | CC[C@@]1(O)C(=O)OCc2c1cc1n(c2=O)Cc2c-1nc1cc(F)c(C)c3c1c2[C@@H](NC(=O)OCc1ccc(O[C@@H]2O[C@H](C(=O)O)[C@@H](O)[C@H](O)[C@H]2O)c(C(=O)NCCNC(=O)COC2C#CCCCCC2)c1)CC3 (stereo partly drawn) [LP3, (2S,3S,4S,5R,6S)-6-[2-({2-[2-(Cyclooct-2-yn-1-yloxy)acetamido]ethyl}carbamoyl)-4-[({[(10S,23S)-10-ethyl-18-fluoro-10-hydroxy-19-methyl-5,9-dioxo-8-oxa-4,15-diazahexacyclo[14.7.1.0^2,^14.0^4,^13.0^6,^11.0^20,^24]tetracosa-1,6(11),12,14,16,18,20(24)-heptaen-23-yl]carbamoyl}oxy)methyl]phenoxy]-3,4,5-trihydroxyoxane-2-carboxylic acid] | 6.34 |  | 
8 | CC[C@@]1(O)C(=O)OCc2c1cc1n(c2=O)Cc2c-1nc1cc(F)c(C)c3c1c2[C@@H](NCCS(C)(=O)=O)CC3 [P7, (10S,23S)-10-ethyl-18-fluoro-10-hydroxy-23-[(2-methanesulfonylethyl)amino]-19-methyl-8-oxa-4,15-diazahexacyclo[[14.7.1.0^2,^14.0^4,^13.0^6,^11.0^20,^24]]tetracosa-1,6(11),12,14,16,18,20(24)-heptaene-5,9-dione] |  | 8.25 | pEC50 [2, 5]: 8.77
9 | CC[C@@]1(O)C(=O)OCc2c1cc1n(c2=O)Cc2c-1nc1cc(F)c(C)c3c1c2[C@@H](NC(=O)[C@H](CCC(=O)O)NC(=O)OCc1ccc(NC(=O)[C@H](CCCNC(N)=O)NC(=O)[C@@H](NC(=O)CCOCCOCCOCCOCCNC(=O)COC2C#CCCCCC2)C(C)C)cc1)CC3 (stereo partly drawn) [LP9, (4S)-4-{[({4-[(2S)-5-(carbamoylamino)-2-[(2S)-2-{1-[2-(cyclooct-2-yn-1-yloxy)acetamido]-3,6,9,12-tetraoxapentadecan-15-amido}-3-methylbutanamido]pentanamido]phenyl}methoxy)carbonyl]amino}-4-{[(10S,23S)-10-ethyl-18-fluoro-10-hydroxy-19-methyl-5,9-dioxo-8-oxa-4,15-diazahexacyclo[14.7.1.0^2,^14.0^4,^13.0^6,^11.0^20,^24]tetracosa-1,6(11),12,14,16,18,20(24)-heptaen-23-yl]carbamoyl}butanoic acid] | 6.14 |  | 
10 | CC[C@@]1(O)C(=O)OCc2c1cc1n(c2=O)Cc2c-1nc1cc(F)c(C)c3c1c2[C@@H](NC(=O)OCc1ccc(O[C@@H]2O[C@H](CO)[C@@H](O)[C@H](O)[C@H]2O)c(C(=O)NCCNC(=O)COC2C#CCCCCC2)c1)CC3 (stereo partly drawn) [LP4, [3-({2-[2-(Cyclooct-2-yn-1-yloxy)acetamido]ethyl}carbamoyl)-4-{[(2S,3R,4S,5S,6R)-3,4,5-trihydroxy-6-(hydroxymethyl)oxan-2-yl]oxy}phenyl]methyl N-[(10S,23S)-10-ethyl-18-fluoro-10-hydroxy-19-methyl-5,9-dioxo-8-oxa-4,15-diazahexacyclo[14.7.1.0^2,^14.0^4,^13.0^6,^11.0^20,^24]tetracosa-1,6(11),12,14,16,18,20(24)-heptaen-23-yl]carbamate] | 6.44 |  | 
11 | CC[C@@]1(O)C(=O)OCc2c1cc1n(c2=O)Cc2c-1nc1cc(F)c(C)c3c1c2[C@@H](NS(C)(=O)=O)CC3 [P6, N-[(10S,23S)-10-ethyl-18-fluoro-10-hydroxy-19-methyl-5,9-dioxo-8-oxa-4,15-diazahexacyclo[[14.7.1.0^2,^14.0^4,^13.0^6,^11.0^20,^24]]tetracosa-1,6(11),12,14,16,18,20(24)-heptaen-23-yl]methanesulfonamide] |  | 8.13 | pEC50 [2, 5]: 8.50
12 | CC[C@@]1(O)C(=O)OCc2c1cc1n(c2=O)Cc2c-1nc1cc(F)c(C)c3c1c2[C@@H](NC(=O)[C@@H](N)CCCCNC(=O)OCc1ccc(NC(=O)[C@H](CCCNC(N)=O)NC(=O)[C@@H](NC(=O)CCOCCOCCOCCOCCNC(=O)COC2C#CCCCCC2)C(C)C)cc1)CC3 (stereo partly drawn) [LP11, {4-[(2S)-5-(carbamoylamino)-2-[(2S)-2-{1-[2-(cyclooct-2-yn-1-yloxy)acetamido]-3,6,9,12-tetraoxapentadecan-15-amido}-3-methylbutanamido]pentanamido]phenyl}methyl N-[(5S)-5-amino-5-{[(10S,23S)-10-ethyl-18-fluoro-10-hydroxy-19-methyl-5,9-dioxo-8-oxa-4,15-diazahexacyclo[14.7.1.0^2,^14.0^4,^13.0^6,^11.0^20,^24]tetracosa-1,6(11),12,14,16,18,20(24)-heptaen-23-yl]carbamoyl}pentyl]carbamate] | 6.68 |  | 
13 | CC[C@@]1(O)C(=O)OCc2c1cc1n(c2=O)Cc2c-1nc1ccc(OC)cc1c2CNCCCN=[N+]=[N-] [P23, (S)-11-(((3-azidopropyl)amino)methyl)-4-ethyl-4-hydroxy-9-methoxy-1,12-dihydro-14H-pyrano[3′,4′:6,7]indolizino[1,2-b]quinoline-3,14(4H)-dione] |  | 7.43 | 
14 | CC[C@@]1(O)C(=O)OCc2c1cc1n(c2=O)Cc2c-1nc1ccc(OC)cc1c2Cn1cc(Cc2ccccc2)nn1 [P28, (S)-11-((4-benzyl-1H-1,2,3-triazol-1-yl)methyl)-4-ethyl-4-hydroxy-9-methoxy-1,12-dihydro-14H-pyrano[3′,4′:6,7]indolizino[1,2-b]quinoline-3,14(4H)-dione] |  | 7.47 | 
